Peptide text beside a SMILES is read from it.

Data on 6 compounds can be found in publication PMC6214618, “Multimodal Ligand Binding Studies of Human and Mouse G-Coupled Taste Receptors to Correlate Their Species-Specific Sweetness Tasting Properties” (Molecules : A Journal of Synthetic Chemistry and Natural …, 2018).

Assay [1] has as its target T1, human T1R2 ATD (Homo sapiens, UniProt Q8TE23).
T1 construct: or Ser25-Thr489 in the 8xHis-Tag; made in house
T1 sequence (Q8TE23 25-489): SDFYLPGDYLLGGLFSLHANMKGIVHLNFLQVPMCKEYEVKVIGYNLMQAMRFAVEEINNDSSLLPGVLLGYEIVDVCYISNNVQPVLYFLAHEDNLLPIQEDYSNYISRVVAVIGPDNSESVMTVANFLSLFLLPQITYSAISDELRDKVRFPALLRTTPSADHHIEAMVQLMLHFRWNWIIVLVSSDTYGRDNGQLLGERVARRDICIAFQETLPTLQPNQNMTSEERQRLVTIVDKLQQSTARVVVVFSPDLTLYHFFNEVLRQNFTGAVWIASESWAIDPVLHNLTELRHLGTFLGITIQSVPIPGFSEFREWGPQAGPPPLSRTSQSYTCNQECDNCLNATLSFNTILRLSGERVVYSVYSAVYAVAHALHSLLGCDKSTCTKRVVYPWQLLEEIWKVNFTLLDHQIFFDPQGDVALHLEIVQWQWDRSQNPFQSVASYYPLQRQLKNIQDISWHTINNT
The assay can be described thus: Circular dichroism (CD) spectroscopy of ligand binding, human T1R2 ATD. To be noted: for Kd: measured by CD, 25 °C, 4.5 μM ATD protein, nonlinear regression at fixed wavelength; for change in CD profile / ellipticity upon ligand addition: His-hT1R2 ATD, 209 and 219 nm. As for the experimental part:
CD spectra were recorded at 25 °C on an Model 202SF circular dichroism spectrometer (Aviv, Lakewood, NY, USA) equipped with a Peltier temperature control. Samples were added to a 0.01 cm path length quartz cuvette with a concentration of the ATD (from human and mouse) of about 0.3 mg/mL (4.5 μM) in 10 mM Tris-HCl, 150 mM NaCl, 10% glycerol, pH 7.4. Data was collected every 1 nm with an averaging time of 5 s. The spectral bandwidth was 1 nm. Spectra were corrected for buffer and ligands contributions and converted to mean ellipticity in deg cm^2·dmol^−1. The content of α-helix was computed using the deconvolution program from Chen et al.. […] The KD was calculated by analyzing CD data at a fixed wavelength versus ligand concentration using a nonlinear regression method (see Table 1). MSG was used as a negative control.

In assay [2] the target is T1, human T1R2 ATD. The assay can be described thus: Intrinsic fluorescence spectroscopy, human T1R2 ATD. Type of assay: binding. To be noted: excitation 280 nm; for change in intrinsic fluorescence intensity: human T1R2 ATD, ligand 0–64 μM. As for the experimental part: (§1) Samples were prepared in the same way as for the CD experiments. Experiments were performed at 25 °C on Carey Eclipse instrument (Agilent, Santa Clara, CA, USA). Spectra were subtracted from the buffer ± ligand backgrounds for presentation. The curves at 340 nm were the best fits of the data obtained by a regression method using Microsoft Excel software (Microsoft, Redmont, WA, USA).

The target of assay [3] is T2, mouse T1R2 ATD (Mus musculus, UniProt Q925I4).
T2 construct: The mouse 8xHis-Tev-ATD-mT1R2 construct ranged from residues Gly2-Pro466; made in house
T2 sequence (Q925I4 2-465 limits assumed): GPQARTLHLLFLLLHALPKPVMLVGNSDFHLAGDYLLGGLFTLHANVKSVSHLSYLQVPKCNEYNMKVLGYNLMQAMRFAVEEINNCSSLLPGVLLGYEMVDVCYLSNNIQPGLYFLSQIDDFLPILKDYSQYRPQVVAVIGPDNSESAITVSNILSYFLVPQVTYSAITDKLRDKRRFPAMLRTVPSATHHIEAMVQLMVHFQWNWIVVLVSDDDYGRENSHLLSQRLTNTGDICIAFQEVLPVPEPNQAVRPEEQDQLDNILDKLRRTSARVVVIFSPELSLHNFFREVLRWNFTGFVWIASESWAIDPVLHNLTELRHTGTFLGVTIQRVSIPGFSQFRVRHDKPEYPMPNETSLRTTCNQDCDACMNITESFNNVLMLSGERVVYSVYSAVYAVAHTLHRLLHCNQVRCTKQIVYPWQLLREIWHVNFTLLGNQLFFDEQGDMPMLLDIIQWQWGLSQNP
Description: Intrinsic fluorescence spectroscopy, mouse T1R2 ATD. Type of assay: binding. To be noted: excitation 280 nm. Here is the method:
as §1

Assay [4] addresses T2, mouse T1R2 ATD. Description: Circular dichroism (CD) spectroscopy of ligand binding, mouse T1R2 ATD. To be noted: mouse His-T1R2 ATD, saturating concentrations (neotame up to 500 μM). As for the experimental part:
Data was collected every 1 nm with an averaging time of 5 s. The spectral bandwidth was 1 nm. Spectra were corrected for buffer and ligands contributions and converted to mean ellipticity in deg cm^2·dmol^−1. The content of α-helix was computed using the deconvolution program from Chen et al.. […] The KD was calculated by analyzing CD data at a fixed wavelength versus ligand concentration using a nonlinear regression method (see Table 1). MSG was used as a negative control.

Assay [5] has as its target T3, human T1R2 ATD (Homo sapiens, UniProt Q8TE23).
T3 construct: The human constructs ranged from residues Asn24-Met494 for human (ATD-hT1R2) in the SUMO fusion; His (N); TEV cleavage site (N); made in house
T3 sequence (Q8TE23 24-494): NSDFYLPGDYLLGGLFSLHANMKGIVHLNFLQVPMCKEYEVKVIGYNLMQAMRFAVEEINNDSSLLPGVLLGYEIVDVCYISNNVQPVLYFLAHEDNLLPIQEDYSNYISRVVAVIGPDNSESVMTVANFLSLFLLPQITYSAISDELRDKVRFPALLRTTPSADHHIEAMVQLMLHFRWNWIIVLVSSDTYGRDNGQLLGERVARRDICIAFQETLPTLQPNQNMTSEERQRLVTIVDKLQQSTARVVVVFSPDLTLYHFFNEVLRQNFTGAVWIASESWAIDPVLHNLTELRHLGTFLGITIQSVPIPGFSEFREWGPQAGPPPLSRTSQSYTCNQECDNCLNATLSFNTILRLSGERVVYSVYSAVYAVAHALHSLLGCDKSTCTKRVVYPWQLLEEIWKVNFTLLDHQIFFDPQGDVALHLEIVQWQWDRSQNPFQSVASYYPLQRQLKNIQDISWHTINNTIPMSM
The assay can be described thus: Saturation transfer difference NMR (STD-NMR) binding assay. To be noted: neotame 3–10 mM at 27 °C; MSG at 7–37 °C. Here is the method: The ligand binding activity of ATD-T1R2 for all ligands was confirmed with a NMR-STD binding assay as previously described. Aliquots of the pure labeled SUMO-T1R2 protein were incubated with desired titrating ligands at 0.5–20 fold molar excess and concentrated to a final concentration of ~0.05 mM in 10 mM phosphate buffer (pH 7.4) containing 150 mM NaCl, 2.7 mM KCl, 5 mM DTT, 5x protease inhibitor (Roche) and 0.05% NaN3. Monosodium glutamate (MSG, non-sweet molecule) was used as a negative control. NMR data were collected on a VNMRS spectrometer (Varian, Palo Alto, CA, USA) operating at 800 MHz and equipped with a cryogenic probe. STD-NMR data collection and analysis was carried out as previously described.

In turn, `CC1=CC(=O)NS(=O)(=O)O1` [Acetasulfame] came in with a Kd at human T1R2 ATD [1] of 100 µM.

For the compound `COC(=O)[C@H](Cc1ccccc1)NC(=O)[C@@H](N)CC(=O)O` [Aspartame] (HELM PEPTIDE1{D.F.[CO[*:1]]}$$$$V2.0), the Kd at human T1R2 ATD [1] is above 300 µM.

On human T1R2 ATD [1], `N[C@H](Cc1c[nH]c2ccccc12)C(=O)O` [D-Tryptophan] had a Kd of 500 µM.

Take `N[C@@H](CCC(=O)O)C(=O)[O-].[Na+]` [MSG, monosodium glutamate]: the “change in intrinsic fluorescence intensity” value is recorded as “no change in intrinsic fluorescence intensity” on human T1R2 ATD [2] and “did not change the intrinsic fluorescence intensity” on mouse T1R2 ATD [3]. The “change in CD profile / ellipticity upon ligand addition” value on human T1R2 ATD [1] is given as “no change”. At mouse T1R2 ATD [4], the “change in ellipticity upon ligand addition” value is “no change in ellipticity”. Moreover, on human T1R2 ATD [5], the “STD signal / binding” value is “no STD signal”.

In the case of `OC[C@H]1O[C@H](O[C@]2(CCl)O[C@H](CCl)[C@@H](O)[C@@H]2O)[C@H](O)[C@@H](O)[C@H]1Cl` [Sucralose], the EC50 at human T1R2 ATD [2] (h-T1R2 ATD, signal at 336 nm, read-out: ligand concentration at half of the maximal value of fluorescence change) worked out at 5 µM. Moreover, the “change in intrinsic fluorescence intensity” value at human T1R2 ATD [2] is given as “decreasing fluorescence intensity”. On human T1R2 ATD [1], this compound had a dissociation constant (Kd) of 40 µM.

`OC[C@H]1O[C@@](CO)(O[C@H]2O[C@H](CO)[C@@H](O)[C@H](O)[C@H]2O)[C@@H](O)[C@@H]1O` [Sucrose]: on human T1R2 ATD [2], the “change in intrinsic fluorescence intensity” value is “did not change the fluorescence intensity”. Further, on human T1R2 ATD [1], the “change in CD profile / ellipticity upon ligand addition” value is listed as “small decrease in ellipticity” and the Kd is 40 µM. In addition, the “change in intrinsic fluorescence intensity” value at mouse T1R2 ATD [3] is listed as “decrease in the fluorescence intensity”. For the same compound, the EC50 on mouse T1R2 ATD [3] (signal at 336 nm, read-out: half-maximal value of fluorescence intensity decrease) came to 8 µM. Moreover, the “change in ellipticity upon ligand addition” value at mouse T1R2 ATD [4] was “small decrease in ellipticity”.
